# Where “and” joins values, the source holds several entries; their conditions need not be identical. Equal values may be shown once.
# How the values were obtained:
# Format in all cases: cell-based, human
# [1] = test system: platelets in platelet-rich plasma (PRP); assay: Light transmission aggregometry, platelet aggregation induced by arachidonic acid
# Experimental: (§1) All the experiments were conducted using healthy adult volunteers not taking aspirin or other medications that affect platelet aggregation. Whole blood was collected into 0.105 M buffered sodium citrate as the anticoagulant. Platelet-rich plasma (PRP) was prepared by centrifugation of whole blood at 135×g for 20 min. The residual blood sample was then centrifuged at 2,500×g for 15 min to obtain platelet-poor plasma (PPP). Platelet counts in the PRP were determined using a Horiba Micros 60 cell counter. For LTA experiments, platelet counts in PRP were adjusted to 250,000/μL using autologous donor PPP as the diluent.
# The stock vial (16 mM) of AA was diluted by adding 0.5 mL of deionized water to obtain a 1.6 mM AA solution. The AA solution was maintained on ice and was used within 6 hr of preparation.
# The samples were incubated in a water bath at 37° C. for 30 min before performing the LTA experiments.
# The adjusted PRP was incubated with indicated concentration of GoPE (Table 7) for 30 min at 37° C.
# (§2) After incubation of PRP with test articles, 450 μL of PRP were transferred into aggregation cuvettes for LTA testing. All aggregation experiments were performed on a LTA-Chronolog 700 aggregometer with Aggrolink 8 software. The instrument was set for an optical mode of data acquisition and the stir bar speed was set to 1.200 rpm. Autologous PPP was used in the reference channel of the aggregometer and baselines were set prior to addition of agonists. Fifty (50) μL of working agonist solutions (AA, ADP, and Collagen) were added to the cuvettes and tracings recorded for a minimum of 6 minutes. The maximal aggregation (MA) response was calculated using Aggrolink software for reporting the data.
# [2] = test system: platelets in platelet-rich plasma (PRP); assay: Light transmission aggregometry, platelet aggregation induced by adenosine diphosphate; settings: for inhibition of platelet aggregation in the presence of 5 or 20 μM ADP: at any of the concentrations tested
# Experimental: as §1
# Stock solutions of ADP (200 μM) were prepared in saline and stored frozen at −80° C. A vial of stock ADP was thawed and further diluted in saline to obtain a 50 μM ADP solution. Fifty (50) μL of ADP solution (200 and 50 μM) were added to 450 μL of adjusted PRP to perform aggregation tests with 20 μM ADP and 5 μM ADP.
# (§3) The samples were incubated in a water bath at 37° C. for 30 min before performing the LTA experiments. […]
# as §2
# [3] = test system: platelets in platelet-rich plasma (PRP); assay: Light transmission aggregometry, platelet aggregation induced by collagen
# Experimental: as §1, with “Whole” for “All the experiments were conducted using healthy adult volunteers not taking aspirin or other medications that affect platelet aggregation. Whole”
# Twenty five (25) jμL of the stock solution of collagen (1 mg/ml) was added to 475 μL of collagen dilution buffer to obtain a 50 μg/ml working solution. Fifty (50) μL of collagen solution was added to 450 μL of adjusted PRP to perform aggregation tests. The final concentration of collagen used for aggregation testing was 5 μg/ml.
# as §3, §2
# [4] = 6-paradol 1 μM, individual donor
# [5] = 6-paradol 10 μM, individual donor
# [6] = 6-paradol 100 μM, individual donor
# [7] = 6-paradol 1000 μM, individual donor
# [8] = substance at 10 μM and higher (6-paradol: in most experiments)
# [9] = substance at a concentration of 1 μM
# [10] = Aspirin 10 μM, individual donor
# [11] = Aspirin 100 μM, individual donor
# [12] = Aspirin 1000 μM, individual donor
structure (smiles),measurement,setting,value
CCCCCCCC(=O)CCc1ccc(O)c(OC)c1 [6-paradol],Maximal Percent Aggregation Response to 1.6 mM Arachidonic Acid,"[1]; 6-paradol 1 μM, Mean",82%
same,Maximal Percent Aggregation Response to 1.6 mM Arachidonic Acid,[1]; [4],72% and 77% and 96% and 65% and 98%
same,Maximal Percent Aggregation Response to 1.6 mM Arachidonic Acid,"[1]; 6-paradol 10 μM, Mean",51%
same,Maximal Percent Aggregation Response to 1.6 mM Arachidonic Acid,[1]; [5],0% (2×) and 99% and 71% and 87%
same,Maximal Percent Aggregation Response to 1.6 mM Arachidonic Acid,"[1]; 6-paradol 100 μM, Mean",2%
same,Maximal Percent Aggregation Response to 1.6 mM Arachidonic Acid,[1]; [6],0% (4×) and 9%
same,Maximal Percent Aggregation Response to 1.6 mM Arachidonic Acid,"[1]; 6-paradol 1000 μM, Mean",1%
same,Maximal Percent Aggregation Response to 1.6 mM Arachidonic Acid,[1]; [7],0% (4×) and 3%
same,inhibition of AA-mediated platelet aggregation,[1]; [8],Near complete inhibition
same,inhibition of AA-mediated platelet aggregation,[1]; [9],did not significantly inhibit
same,Maximal Percent Aggregation Response to 5 μM Adenosine Diphosphate,"[2]; 6-paradol 1 μM, Mean",77%
same,Maximal Percent Aggregation Response to 20 μM Adenosine Diphosphate,"[2]; 6-paradol 1 μM, Mean",83%
same,Maximal Percent Aggregation Response to 5 μM Adenosine Diphosphate,[2]; [4],83% and 81% and 92% and 50%
same,Maximal Percent Aggregation Response to 20 μM Adenosine Diphosphate,[2]; [4],70% and 85% and 88% and 74% and 99%
same,Maximal Percent Aggregation Response to 5 μM Adenosine Diphosphate,"[2]; 6-paradol 10 μM, Mean",74%
same,Maximal Percent Aggregation Response to 20 μM Adenosine Diphosphate,"[2]; 6-paradol 10 μM, Mean",86%
same,Maximal Percent Aggregation Response to 5 μM Adenosine Diphosphate,[2]; [5],77% and 78% and 96% and 46%
same,Maximal Percent Aggregation Response to 20 μM Adenosine Diphosphate,[2]; [5],81% and 82% and 100% and 84% and 85%
same,Maximal Percent Aggregation Response to 5 μM Adenosine Diphosphate,"[2]; 6-paradol 100 μM, Mean",63%
same,Maximal Percent Aggregation Response to 20 μM Adenosine Diphosphate,"[2]; 6-paradol 100 μM, Mean",79%
same,Maximal Percent Aggregation Response to 5 μM Adenosine Diphosphate,[2]; [6],57% and 67% and 81% and 45%
same,Maximal Percent Aggregation Response to 20 μM Adenosine Diphosphate,[2]; [6],63% and 73% and 95% and 76% and 90%
same,Maximal Percent Aggregation Response to 5 μM Adenosine Diphosphate,"[2]; 6-paradol 1000 μM, Mean",50%
same,Maximal Percent Aggregation Response to 20 μM Adenosine Diphosphate,"[2]; 6-paradol 1000 μM, Mean",66%
same,Maximal Percent Aggregation Response to 5 μM Adenosine Diphosphate,[2]; [7],55% and 53% and 59% and 33%
same,Maximal Percent Aggregation Response to 20 μM Adenosine Diphosphate,[2]; [7],53% and 67% (3×) and 78%
same,inhibition of platelet aggregation in the presence of 5 or 20 μM ADP,[2],did not significantly inhibit
same,Maximal Percent Aggregation Response to 5 μg/ml Collagen,"[3]; 6-paradol 1 μM, Mean",89%
same,Maximal Percent Aggregation Response to 5 μg/ml Collagen,[3]; [4],81% and 100% and 77% and 97% and 90%
same,Maximal Percent Aggregation Response to 5 μg/ml Collagen,"[3]; 6-paradol 10 μM, Mean",95%
same,Maximal Percent Aggregation Response to 5 μg/ml Collagen,[3]; [5],82% and 100% (2×) and 97% and 98%
same,Maximal Percent Aggregation Response to 5 μg/ml Collagen,"[3]; 6-paradol 100 μM, Mean",85%
same,Maximal Percent Aggregation Response to 5 μg/ml Collagen,[3]; [6],82% and 100% and 88% and 89% and 64%
same,inhibition of collagen-mediated platelet aggregation response,[3]; 6-paradol 1000 μM,substantially inhibited
same,Maximal Percent Aggregation Response to 5 μg/ml Collagen,"[3]; 6-paradol 1000 μM, Mean",41%
same,Maximal Percent Aggregation Response to 5 μg/ml Collagen,[3]; [7],23% and 60% and 36% and 74% and 10%
same,inhibition of collagen-mediated platelet aggregation,[3]; 6-paradol concentrations of 100 μM or less,did not significantly inhibit
"CC(=O)Oc1ccccc1C(=O)O [Aspirin, aspirin]",Maximal Percent Aggregation Response to 1.6 mM Arachidonic Acid,"[1]; Aspirin 1 μM, Mean",69%
same,Maximal Percent Aggregation Response to 1.6 mM Arachidonic Acid,"[1]; Aspirin 1 μM, individual donor",75% and 0% and 100% and 73% and 95%
same,Maximal Percent Aggregation Response to 1.6 mM Arachidonic Acid,"[1]; Aspirin 10 μM, Mean",2%
same,Maximal Percent Aggregation Response to 1.6 mM Arachidonic Acid,[1]; [10],0% (3×) and 1% and 7%
same,Maximal Percent Aggregation Response to 1.6 mM Arachidonic Acid,"[1]; Aspirin 100 μM, Mean",1%
same,Maximal Percent Aggregation Response to 1.6 mM Arachidonic Acid,[1]; [11],0% (4×) and 5%
same,Maximal Percent Aggregation Response to 1.6 mM Arachidonic Acid,"[1]; Aspirin 1000 μM, Mean",2%
same,Maximal Percent Aggregation Response to 1.6 mM Arachidonic Acid,[1]; [12],0% (3×) and 8%
same,inhibition of AA-mediated platelet aggregation,[1]; [8],near complete inhibition
same,inhibition of AA-mediated platelet aggregation,[1]; [9],did not significantly inhibit
same,Maximal Percent Aggregation Response to 5 μM Adenosine Diphosphate,"[2]; Aspirin 1 μM, Mean",82%
same,Maximal Percent Aggregation Response to 20 μM Adenosine Diphosphate,"[2]; Aspirin 1 μM, Mean",90%
same,Maximal Percent Aggregation Response to 5 μM Adenosine Diphosphate,"[2]; Aspirin 1 μM, individual donor",78% and 83% and 92% and 73%
same,Maximal Percent Aggregation Response to 20 μM Adenosine Diphosphate,"[2]; Aspirin 1 μM, individual donor",91% and 87% and 100% and 81% and 90%
same,Maximal Percent Aggregation Response to 5 μM Adenosine Diphosphate,"[2]; Aspirin 10 μM, Mean",70%
same,Maximal Percent Aggregation Response to 20 μM Adenosine Diphosphate,"[2]; Aspirin 10 μM, Mean",80%
same,Maximal Percent Aggregation Response to 5 μM Adenosine Diphosphate,[2]; [10],82% and 63% and 84% and 52%
same,Maximal Percent Aggregation Response to 20 μM Adenosine Diphosphate,[2]; [10],78% (2×) and 92% and 68% and 84%
same,Maximal Percent Aggregation Response to 5 μM Adenosine Diphosphate,"[2]; Aspirin 100 μM, Mean",71%
same,Maximal Percent Aggregation Response to 20 μM Adenosine Diphosphate,"[2]; Aspirin 100 μM, Mean",86%
same,Maximal Percent Aggregation Response to 5 μM Adenosine Diphosphate,[2]; [11],63% and 94% and 75% and 53%
same,Maximal Percent Aggregation Response to 20 μM Adenosine Diphosphate,[2]; [11],63% and 87% (2×) and 95% and 97%
same,Maximal Percent Aggregation Response to 5 μM Adenosine Diphosphate,"[2]; Aspirin 1000 μM, Mean",74%
same,Maximal Percent Aggregation Response to 20 μM Adenosine Diphosphate,"[2]; Aspirin 1000 μM, Mean",80%
same,Maximal Percent Aggregation Response to 5 μM Adenosine Diphosphate,[2]; [12],71% and 90% and 86% and 50%
same,Maximal Percent Aggregation Response to 20 μM Adenosine Diphosphate,[2]; [12],72% and 84% and 80% and 78% and 88%
same,inhibition of platelet aggregation in the presence of 5 or 20 μM ADP,[2],did not significantly inhibit
same,Maximal Percent Aggregation Response to 5 μg/mL Collagen,"[3]; Aspirin 1 μM, Mean",94%
same,Maximal Percent Aggregation Response to 5 μg/mL Collagen,"[3]; Aspirin 1 μM, individual donor",100% (2×) and 82% and 92% and 97%
same,Maximal Percent Aggregation Response to 5 μg/mL Collagen,"[3]; Aspirin 10 μM, Mean",91%
same,Maximal Percent Aggregation Response to 5 μg/mL Collagen,[3]; [10],86% and 100% (2×) and 80% and 87%
same,Maximal Percent Aggregation Response to 5 μg/mL Collagen,"[3]; Aspirin 100 μM, Mean",65%
same,Maximal Percent Aggregation Response to 5 μg/mL Collagen,[3]; [11],52% and 92% and 61% and 90% and 28%
same,Maximal Percent Aggregation Response to 5 μg/mL Collagen,"[3]; Aspirin 1000 μM, Mean",56%
same,Maximal Percent Aggregation Response to 5 μg/mL Collagen,[3]; [12],39% and 75% and 52% and 83% and 32%
same,inhibition at 1000 µM,"[3]; Homo sapiens, Platelet, read-out: inhibition of collagen-mediated platelet aggregation response relative to DMSO control",~37%

# Reference: patent US11110146B2, “Methods for reducing platelet aggregation and treating cardiovascular disease and other medical disorders” (Paradise Health, Inc., priority 2014, dated 2021)
